Molecular target: T1, human Nav1.7 (Homo sapiens, UniProt Q15858)
T1 construct: expressed in transfected cells
Experiment: Assessment of Nav1.7 activity on PatchXpress (voltage dependence / slow inactivation parameters)
Format: cell-based
Details: compound at 10 μM, relative to 0.2% DMSO vehicle control; for hNav1.7: Reduction in current at 20 mV (normalized data) Delta Ratio: before/after 30 sec conditioning pulse at 20 mV; for hNav1.7: Shift in voltage dependence of inactivation (mV) Delta Vhalf: PatchXpress
Method: The generation of a HEK 293F cell line stably expressing human Nav1.7/Navp1 was achieved by co-transfecting human SCN9A and human SCN1B cDNAs, subcloned into plasmid vectors, utilizing standard transfection techniques. Clones were selected using appropriate selection agents (0.3 mg/mL Zeocin and 0.8 mg/mL Geneticin) and maintained in Dulbecco's Modified Eagle medium, 10% fetal bovine serum, 1% non-essential amino acids to ˜80% confluence at 37° C. in a humidified incubator with 95% atmosphere and 5% CO2.
On the day of each experiment, cells that were grown to 80% confluence in a T75 flask were harvested for use on PatchXpress (Molecular Devices, CA, USA). Following a recovery period at 37° C. in a humidified incubator with 95% atmosphere and 5% CO2 in Dulbecco's Modified Eagle Medium, the media was replaced with an external recording solution containing (in mM): 90 TEACI, 50 NaCl, 1.8 CaCl2, 1 MgCl2, 10 HEPES, 10 glucose, adjusted to pH 7.4 with TEAOH and 300 mOsm with sucrose. The internal recording solution contained (in mM): 129 CsF, 2 MgCl2, 11 EGTA, 10 HEPES, 6 NaCl, 3 Na2ATP adjusted to pH 7.2 with CsOH and 280 mOsm with sucrose. The automated liquid handling facility of PatchXpress dispensed cells and added compound. Modulation of Nav1.7 channels by compounds was assessed by promoting the channels into the inactivated state using a conditioning voltage pulse of variable amplitude, followed by a brief hyperpolarizing pulse with a subsequent depolarized voltage step to measure the current amplitude in the presence and absence of compound. Compounds were assayed at 10 μM. Based upon this Patch express protocol, four electrophysiological parameters were measured relative to a 0.2% DMSO vehicle control (Table 2).

T1 sequence (Q15858 whole entry): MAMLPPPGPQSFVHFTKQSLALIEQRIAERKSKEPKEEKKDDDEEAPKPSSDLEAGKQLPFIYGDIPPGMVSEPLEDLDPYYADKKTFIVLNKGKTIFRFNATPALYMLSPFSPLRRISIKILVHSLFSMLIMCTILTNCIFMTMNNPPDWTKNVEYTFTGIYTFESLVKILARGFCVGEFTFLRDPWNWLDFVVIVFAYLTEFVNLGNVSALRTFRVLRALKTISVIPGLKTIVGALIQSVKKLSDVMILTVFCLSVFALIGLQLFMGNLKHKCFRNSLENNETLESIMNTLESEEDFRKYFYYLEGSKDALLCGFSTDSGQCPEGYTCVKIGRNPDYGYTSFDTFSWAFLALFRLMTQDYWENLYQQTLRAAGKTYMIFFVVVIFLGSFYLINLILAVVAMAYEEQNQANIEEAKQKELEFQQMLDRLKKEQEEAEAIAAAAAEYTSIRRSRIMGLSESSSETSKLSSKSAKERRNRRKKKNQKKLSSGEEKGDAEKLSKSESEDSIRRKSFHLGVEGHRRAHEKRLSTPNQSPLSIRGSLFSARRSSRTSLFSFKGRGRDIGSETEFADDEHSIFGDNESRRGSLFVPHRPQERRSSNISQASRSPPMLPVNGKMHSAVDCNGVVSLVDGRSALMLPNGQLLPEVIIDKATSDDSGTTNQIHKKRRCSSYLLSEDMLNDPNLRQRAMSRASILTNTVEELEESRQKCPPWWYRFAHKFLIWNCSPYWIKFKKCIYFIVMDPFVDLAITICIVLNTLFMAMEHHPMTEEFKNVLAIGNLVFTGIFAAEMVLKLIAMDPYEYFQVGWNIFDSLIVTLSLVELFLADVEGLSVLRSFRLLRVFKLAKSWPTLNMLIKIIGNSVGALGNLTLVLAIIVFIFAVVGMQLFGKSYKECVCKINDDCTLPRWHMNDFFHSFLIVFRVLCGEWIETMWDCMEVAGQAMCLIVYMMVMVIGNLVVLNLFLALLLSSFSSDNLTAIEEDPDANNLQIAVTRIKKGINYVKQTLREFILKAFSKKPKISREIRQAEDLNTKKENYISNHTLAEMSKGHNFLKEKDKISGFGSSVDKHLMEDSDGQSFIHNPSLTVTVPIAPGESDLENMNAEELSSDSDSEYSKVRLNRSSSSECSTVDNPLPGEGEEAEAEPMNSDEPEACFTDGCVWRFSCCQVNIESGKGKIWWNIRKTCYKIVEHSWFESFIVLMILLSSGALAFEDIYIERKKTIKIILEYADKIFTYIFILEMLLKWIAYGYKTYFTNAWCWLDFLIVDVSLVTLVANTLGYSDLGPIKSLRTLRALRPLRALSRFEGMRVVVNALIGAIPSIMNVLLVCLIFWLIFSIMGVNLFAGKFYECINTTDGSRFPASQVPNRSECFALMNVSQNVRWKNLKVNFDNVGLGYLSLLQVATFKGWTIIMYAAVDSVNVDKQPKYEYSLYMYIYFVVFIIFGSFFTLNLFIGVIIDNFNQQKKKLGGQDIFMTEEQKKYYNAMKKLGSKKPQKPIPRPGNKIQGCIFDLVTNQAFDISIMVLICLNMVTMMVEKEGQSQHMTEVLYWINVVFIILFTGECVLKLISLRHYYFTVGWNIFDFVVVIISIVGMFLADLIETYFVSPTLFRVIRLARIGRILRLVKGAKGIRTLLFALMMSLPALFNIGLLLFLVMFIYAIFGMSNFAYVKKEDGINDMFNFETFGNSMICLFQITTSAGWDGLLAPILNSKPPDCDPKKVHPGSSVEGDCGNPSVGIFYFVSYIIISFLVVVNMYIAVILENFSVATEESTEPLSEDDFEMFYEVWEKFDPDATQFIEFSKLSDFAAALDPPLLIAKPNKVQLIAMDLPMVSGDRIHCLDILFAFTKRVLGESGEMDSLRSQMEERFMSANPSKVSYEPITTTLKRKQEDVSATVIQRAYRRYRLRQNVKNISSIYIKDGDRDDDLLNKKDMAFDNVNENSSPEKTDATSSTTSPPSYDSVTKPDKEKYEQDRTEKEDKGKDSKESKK
T1 sequence (Q07699 19-218 partner): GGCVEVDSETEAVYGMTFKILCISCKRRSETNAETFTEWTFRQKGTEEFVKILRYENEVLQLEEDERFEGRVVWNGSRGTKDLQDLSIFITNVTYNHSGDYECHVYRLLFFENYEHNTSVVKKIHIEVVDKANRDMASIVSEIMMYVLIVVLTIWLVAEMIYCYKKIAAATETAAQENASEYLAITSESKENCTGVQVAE

SMILES | hNav1.7: Reduction in current at 20 mV (normalized data) Delta Ratio | hNav1.7: Voltage dependence of activation (mV) VDEP [mV] | hNav1.7: Voltage dependence of fast inactivation (mV) VDEP [mV] | hNav1.7: Shift in voltage dependence of inactivation (mV) Delta Vhalf [mV]
N[C@H]1CCCC[C@H]1C(=O)NCCOc1cc(C(F)(F)F)cc(C(F)(F)F)c1 [Compound 8, (1R,2S)-2-amino-N-(2-(3,5-bis(trifluoromethyl)phenoxy)ethyl) cyclohexane-1-carboxamide] | −0.23 | −7.80 | −6.80 | −16.40
CC12CC3CC(C)(C1)CC(NC(=O)CCN)(C3)C2 [Compound 46, 3-amino-N-(3,5-dimethyladamantan-1-yl)propanamide] | −0.04 | −7.90 | −4.50 | −1.70
O=C(CN1CCNCC1=O)NCC(F)(F)F [Compound 47, 2-(2-oxopiperazin-1-yl)-N-(2,2,2-trifluoroethyl)acetamide] | −0.02 | −8.90 | −4.40 | −2.50
CC(C)(CN1CCNCC1=O)c1nc2cc(C(F)(F)F)cc(C(F)(F)F)c2[nH]1 [Compound 65, 1-(2-(4,6-bis(trifluoromethyl)-1H-benzo[d]imidazol-2-yl)-2-methylpropyl)piperazin-2-one] | −0.16 | −8.1 | −6.2 | −3.5
NCC[C@@H]1Nc2c(cc(C(F)(F)F)cc2C(F)(F)F)NC1=O [Compound 39, (S)-3-(2-aminoethyl)-5,7-bis(trifluoromethyl)-3,4-dihydroquinoxalin-2(1H)-one] | −0.08 | −7.40 | −3.10 | −4.90
CC(C)C[C@H](N)CC(=O)NCCOc1cc(F)cc(C(F)(F)F)c1 [Compound 18, (S)-3-amino-N-(2-(3-fluoro-5-(trifluoromethyl)phenoxy)ethyl)-5-methylhexanamide] | −0.09 | −2.60 | −3.90 | −11.90
COC[C@@H]1C(=O)N(Cc2cc(C(F)(F)F)cc(C(F)(F)F)c2)CCN1C(C)=O [Compound 92, (R)-4-acetyl-1-(3,5-bis(trifluoromethyl)benzyl)-3-(methoxymethyl)piperazin-2-one] | 0.01 | −7.1 | −3.9 | −2.2
CC12CC3CC(C)(C1)CC(NC(=O)[C@H]1CCCN1)(C3)C2 [Compound 43, (2R)-N-(3,5-dimethyladamantan-1-yl)pyrrolidine-2-carboxamide] | −0.12 | −11.40 | −5.70 | −8.50
CC(C)(c1nc2cc(C(F)(F)F)cc(C(F)(F)F)c2[nH]1)N1CCNCC1=O [Compound 60, 1-(2-(4,6-bis(trifluoromethyl)-1H-benzo[d]imidazol-2-yl)propan-2-yl)piperazin-2-one] | −0.19 | −8.3 | −3.8 | −9.2
CC(=O)N1CCC(NC(=O)Nc2ccc(OC(F)(F)F)cc2)CC1 [Compound 50, 1-(1-acetylpiperidin-4-yl)-3-(4-(trifluoromethoxy)phenyl)urea] | 0.02 | −8.30 | −2.10 | −0.30
O=C(Cc1nc2cc(F)cc(F)c2[nH]1)NC1CCNCC1 [Compound 89, 2-(4,6-difluoro-1H-benzo[d]imidazol-2-yl)-N-(piperidin-4-yl)acetamide] | −0.01 | −10.6 | −4.4 | −3.6
O=C(NCCOc1cc(C(F)(F)F)cc(C(F)(F)F)c1)[C@H]1CCCN1 [Compound 11, (R)-N-(2-(3,5-bis(trifluoromethyl)phenoxy)ethyl) pyrrolidine-2-carboxamide] | −0.20 | −5.00 | −3.90 | −19.70
Cc1cccc(C)c1OCC(C)NC(=O)CN1CCNCC1=O (stereo not drawn) [Compound 35, N-(1-(2,6-dimethylphenoxy)propan-2-yl)-2-(2-oxopiperazin-1-yl)acetamide] | −0.06 | −7.40 | −4.40 | −3.00
N[C@@H](Cc1ccccc1)c1nc2cc(C(F)(F)F)cc(C(F)(F)F)c2[nH]1 [Compound 51, (S)-1-(4,6-bis(trifluoromethyl)-1H-benzo[d]imidazol-2-yl)-2-phenylethan-1-amine] | −0.35 | −9.5 | −11.5 | −20.8
O=C(NCC12CC3CC(CC(C3)C1)C2)[C@H]1CCCN1 [Compound 44, (R)-N-(adamantan-1-ylmethyl)pyrrolidine-2-carboxamide] | −0.11 | −13.20 | −6.00 | −5.40
C[C@@H](NC(=O)CN1CCNCC1=O)c1ccc(OCC(F)(F)F)cn1 [Compound 81, (R)-2-(2-oxopiperazin-1-yl)-N-(1-(5-(2,2,2-trifluoroethoxy)pyridin-2-yl)ethyl)acetamide] | −0.02 | −10.3 | −5 | −2.8
NC[C@@H]1Nc2c(cc(C(F)(F)F)cc2C(F)(F)F)NC1=O [Compound 40, (S)-3-(aminomethyl)-5,7-bis(trifluoromethyl)-3,4-dihydroquinoxalin-2(1H)-one] | −0.02 | −6.60 | −2.60 | −3.90
Cc1cccc(C)c1OCC(C)NC(=O)[C@@H](N)CC(C)C (stereo partly drawn) [Compound 3, (2S)-2-amino-N-(1-(2,6-dimethylphenoxy)propan-2-yl)-4-methylpentanamide] | −0.28 | −8.10 | −7.40 | −28.00
O=C1CNCCN1CCCc1nc2cc(F)cc(F)c2[nH]1 [Compound 68, 1-(3-(4,6-difluoro-1H-benzo[d]imidazol-2-yl)propyl)piperazin-2-one] | −0.1 | −11.6 | −4.9 | −11.4
N[C@H](Cc1cccc(C(F)(F)F)c1)C(=O)NCc1nc2c(C(F)(F)F)cc(C(F)(F)F)cc2[nH]1 [Compound 75, (R)-2-amino-N-((4,6-bis(trifluoromethyl)-1H-benzo[d]imidazol-2-yl)methyl)-3-(3-(trifluoromethyl)phenyl)propanamide] | −0.06 | −15.4 | −3.7 | −2.3
NC1CCN(C(=O)Cc2nc3cc(C(F)(F)F)cc(C(F)(F)F)c3[nH]2)CC1 [Compound 90, 1-(4-aminopiperidin-1-yl)-2-(4,6-bis(trifluoromethyl)-1H-benzo[d]imidazol-2-yl)ethan-1-one] | 0.01 | −2.9 | 0.1 | 2.3

From patent US20170107203A1, “HETEROCYCLIC INHIBITORS OF THE SODIUM CHANNEL” (EPIRUS BIOPHARMACEUTICALS, INC., priority 2014, published 2017)
